biological target: T1, human PTH1 receptor (Homo sapiens, UniProt Q03431); test: In vitro cAMP signal activity in HKRK-B7 cells (LLC-PK1 cells overexpressing the human PTH1 receptor); assay type: cell-based; details: HKRK-B7 cells; compound at 1×10^−3 M; cAMP produced as percentage of that produced by hPTH(1-34) at 100 nM
T1 sequence (Q03431 27-593): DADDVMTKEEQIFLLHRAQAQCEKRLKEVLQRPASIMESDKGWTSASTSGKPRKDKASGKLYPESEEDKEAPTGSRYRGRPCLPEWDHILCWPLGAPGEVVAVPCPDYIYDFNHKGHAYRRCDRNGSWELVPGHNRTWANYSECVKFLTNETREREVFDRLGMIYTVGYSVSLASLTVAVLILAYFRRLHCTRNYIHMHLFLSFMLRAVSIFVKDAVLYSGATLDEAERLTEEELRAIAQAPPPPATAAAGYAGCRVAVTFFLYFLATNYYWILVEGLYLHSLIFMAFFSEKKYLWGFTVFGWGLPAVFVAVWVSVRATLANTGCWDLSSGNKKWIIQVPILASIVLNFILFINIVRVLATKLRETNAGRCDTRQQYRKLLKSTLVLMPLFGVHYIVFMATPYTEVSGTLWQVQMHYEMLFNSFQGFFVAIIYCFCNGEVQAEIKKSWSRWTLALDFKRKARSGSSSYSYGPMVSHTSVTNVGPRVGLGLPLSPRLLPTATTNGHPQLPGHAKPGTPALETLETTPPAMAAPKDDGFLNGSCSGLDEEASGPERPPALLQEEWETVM

SMILES | cAMP production activity (%)
Cc1cc(C(=O)N(C)C)ccc1CCS(=O)(=O)N1CCC2(CC1)N=C(c1ccc(F)cc1Cl)NC2=O [Compound 90, 4-{2-[2-(2-chloro-4-fluoro-phenyl)-4-oxo-1,3,8-triaza-spiro[4.5]dec-1-ene-8-sulfonyl]-ethyl}-3,N,N-trimethyl-benzamide] | 88
Cc1cc(C(=O)N(C)C)ccc1CCS(=O)(=O)N1CCC2(CC1)N=C(c1cccc(Br)c1)NC2=O [Compound 91, 4-{2-[2-(3-bromo-phenyl)-4-oxo-1,3,8-triaza-spiro[4.5]dec-1-ene-8-sulfonyl]-ethyl}-3,N,N-trimethyl-benzamide] | 73
Cc1cc(C(=O)N(C)C)ccc1CCS(=O)(=O)N1CCC2(CC1)N=C(c1cccc3c1OC(F)(F)O3)NC2=O [Compound 92, 4-{2-[2-(2,2-difluoro-benzo[1,3]dioxol-4-yl)-4-oxo-1,3,8-triaza-spiro[4.5]dec-1-ene-8-sulfonyl]-ethyl}-3,N,N-trimethyl-benzamide] | 97
Cc1cc(C(=O)N(C)C)ccc1CCS(=O)(=O)N1CCC2(CC1)N=C(c1cccc(Cl)c1F)NC2=O [Compound 93, 4-{2-[2-(3-chloro-2-fluoro-phenyl)-4-oxo-1,3,8-triaza-spiro[4.5]dec-1-ene-8-sulfonyl]-ethyl}-3,N,N-trimethyl-benzamide] | 111
Cc1cc(C2=NC3(CCN(S(=O)(=O)CCc4ccc(C(=O)N(C)C)cc4C)CC3)C(=O)N2)ccc1Cl [Compound 95, 4-{2-[2-(4-chloro-3-methyl-phenyl)-4-oxo-1,3,8-triaza-spiro[4.5]dec-1-ene-8-sulfonyl]-ethyl}-3,N,N-trimethyl-benzamide] | 76
Cc1cccc(C2=NC3(CCN(S(=O)(=O)CCc4ccc(C(=O)N(C)C)cc4C)CC3)C(=O)N2)n1 [Compound 97, 3,N,N-trimethyl-4-{2-[2-(6-methyl-pyridin-2-yl)-4-oxo-1,3,8-triaza-spiro[4.5]dec-1-ene-8-sulfonyl]-ethyl}-benzamide] | 4.3

Other lines, results leading:

cAMP production activity (%) | SMILES
96 | Cc1cc(C(=O)N(C)C)ccc1CCS(=O)(=O)N1CCC2(CC1)N=C(c1ccc(F)c(Cl)c1)NC2=O [Compound 89, 4-{2-[2-(3-chloro-4-fluoro-phenyl)-4-oxo-1,3,8-triaza-spiro[4.5]dec-1-ene-8-sulfonyl]-ethyl}-3,N,N-trimethyl-benzamide]
62 | Cc1cc(C(=O)N(C)C)ccc1CCS(=O)(=O)N1CCC2(CC1)N=C(c1ccc(OC(F)(F)C(F)F)cc1)NC2=O [Compound 94, 3,N,N-trimethyl-4-(2-{4-oxo-2-[4-(1,1,2,2-tetrafluoro-ethoxy)-phenyl]-1,3,8-triaza-spiro[4.5]dec-1-ene-8-sulfonyl}-ethyl)-benzamide]
70 | Cc1cc(C(=O)N(C)C)ccc1CCS(=O)(=O)N1CCC2(CC1)N=C(c1ccc(C(F)(F)F)c(F)c1)NC2=O [Compound 96, 4-{2-[2-(3-fluoro-4-trifluoromethyl-phenyl)-4-oxo-1,3,8-triaza-spiro[4.5]dec-1-ene-8-sulfonyl]-ethyl}-3,N,N-trimethyl-benzamide]
75 | Cc1cc(C(=O)N(C)C)ccc1CCS(=O)(=O)N1CCC2(CC1)N=C(c1ccc(Cl)c(Cl)c1)NC2=O [Compound 98, 4-{2-[2-(3,4-dichloro-phenyl)-4-oxo-1,3,8-triaza-spiro[4.5]dec-1-ene-8-sulfonyl]-ethyl}-3,N,N-trimethyl-benzamide]
80 | Cc1cc(C(=O)N(C)C)ccc1CCS(=O)(=O)N1CCC2(CC1)N=C(c1cccc(OC(F)(F)F)c1)NC2=O [Compound 99, 3,N,N-trimethyl-4-{2-[4-oxo-2-(3-trifluoromethoxy-phenyl)-1,3,8-triaza-spiro[4.5]dec-1-ene-8-sulfonyl]-ethyl}-benzamide]
